Source: patent US20090023704A1, “Novel Compounds 737” (ASTRAZENECA AB, priority 2007, published 2009)

These molecules were tested against T1, GABAB receptor (GABABR1a/GABABR2 heterodimer) (Homo sapiens, UniProt O75899+Q9UBS5) (assay: [35S]-GTPγS binding assay, potency of PAM (GABA dose-response curves with and without test compound)). Details: potency of the positive allosteric modulator; GABA dose-response in presence of test compound.
T1 construct: expressed in transfected cells
Type: biochemical
From the text: GABABR1a and GABABR2 were cloned from human brain cDNA and subcloned into pCI-Neo (Promega) and pALTER-1 (Promega), respectively. A GABABR1a-Gαqi5 fusion protein expression vector was constructed using the pCI-Neo-GABABR1a cDNA plasmid and pLEC1-Gαqi5 (Molecular Devices, CA). In order to make the Gαqi5 pertussis toxin insensitive, Cys356 was mutated to Gly using standard PCR methodology with the primers 5′-[…]-3′ (forward) and 5′-GCGGCCG […]-3′ (reverse). The Gαqi5mut cDNA was ligated into the BamHI and NotI sites of pcDNA3.0 (Invitrogen). The GABAB R1a coding sequence was amplified by PCR from pCI-Neo-GABABR1a using the primers, 5′-[…]-3′ (forward) and 5′-[…]-3′ (reverse) and subcloned into the BamHI site of pcDNA3.0-Gαqi5mut.
For generation of a cell line expressing the GABABR1a/GABABR2 heterodimer, GABABR1a plasmid DNA (4 μg) GABABR2 plasmid DNA (4 μg) and lipofectamine (24 μl) were mixed in 5 ml OptiMEM and incubated for 45 minutes at room temperature. The cells were exposed to the transfection medium for 5 hours, which then was replaced with culture medium. The cells were cultured for an additional 10 days before selection agents (300 μg/ml hygromycin and 400 μg/ml geneticin) were added. Twenty-four days after transfection, single cell sorting into 96-well plates by flow cytometry was performed using a FACS Vantage SE (Becton Dickinson, Palo Alto, Calif.). After expansion, the GABAB receptor functional response was tested using the FLIPR assay described below. The clone with the highest functional response was collected, expanded and then subcloned by single cell sorting. The clonal cell line with the highest peak response in the FLIPR was used in the present study.
For generation of a stable cell line expressing GABABR1a-Gαqi5 fusion protein and GABABR2, GABABR1a-Gαqi5mut plasmid DNA (8 μg) GABABR2 plasmid DNA (8 μg) and lipofectamine (24 μl) were mixed in 5 ml OptiMEM and incubated for 45 minutes at room temperature. The cells were exposed to the transfection medium for 5 hours, which then was replaced with culture medium. After forty-eight hours, the cells were detached and seeded in 6 well plates (2000 cells/well) and grown in culture medium supplemented with geneticin (400 μg/ml) and zeocin (250 μg/ml). After 4 days, cells from single colonies were collected and transferred to a 24-well plate. After 10 days, the cell clones were seeded in T-25 flasks and grown for another 16 days before they were tested for GABAB receptor mediated functional response. […] The clonal cell line that gave the highest peak response in the FLIPR was used in the present study.
[^35S]-GTPγS binding assays were performed at 30° C. for 45 min in membrane buffer (100 mM NaCl, 5 mM MgCl2, 1 mM EDTA, 50 mM HEPES, pH 7.4) containing 0.025 μg/μl of membrane protein (prepared from the cell lines described above) with 0.01% bovine serum albumin (fatty acid free), 10 μM GDP, 10 μM DTT and 0.53 nM [^35S]-GTPγS (Amersham-Pharmacia Biotech) in a final volume of 200 μl. Non-specific binding was determined in the presence of 20 μM GTPγS. The reaction was started by the addition of GABA at concentration between 1 mM and 0.1 nM in the presence or absence of the required concentration of PAM. The reaction was terminated by addition of ice-cold wash buffer (50 mM Tris-HCl, 5 mM MgCl2, 50 mM NaCl, pH 7.4) followed by rapid filtration under vacuum through Printed Filtermat A glass fiber filters (Wallac) (0.05% PEI treated) using a Micro 96 Harvester (Skatron Instruments). The filters were dried for 30 min at 50° C., then a paraffin scintillant pad was melted onto the filters and the bound radioactivity was determined using a 1450 Microbeta Trilux (Wallac) scintillation counter.
GABA dose-response curves in the presence and absence of test compounds were constructed using the 4-parameter logistic equation, y=ymax+((ymin−ymax)/1+(x/C)^D), where C=EC50 and D=slope factor.

T1 sequence (Q9UBS5 15-961 limits assumed): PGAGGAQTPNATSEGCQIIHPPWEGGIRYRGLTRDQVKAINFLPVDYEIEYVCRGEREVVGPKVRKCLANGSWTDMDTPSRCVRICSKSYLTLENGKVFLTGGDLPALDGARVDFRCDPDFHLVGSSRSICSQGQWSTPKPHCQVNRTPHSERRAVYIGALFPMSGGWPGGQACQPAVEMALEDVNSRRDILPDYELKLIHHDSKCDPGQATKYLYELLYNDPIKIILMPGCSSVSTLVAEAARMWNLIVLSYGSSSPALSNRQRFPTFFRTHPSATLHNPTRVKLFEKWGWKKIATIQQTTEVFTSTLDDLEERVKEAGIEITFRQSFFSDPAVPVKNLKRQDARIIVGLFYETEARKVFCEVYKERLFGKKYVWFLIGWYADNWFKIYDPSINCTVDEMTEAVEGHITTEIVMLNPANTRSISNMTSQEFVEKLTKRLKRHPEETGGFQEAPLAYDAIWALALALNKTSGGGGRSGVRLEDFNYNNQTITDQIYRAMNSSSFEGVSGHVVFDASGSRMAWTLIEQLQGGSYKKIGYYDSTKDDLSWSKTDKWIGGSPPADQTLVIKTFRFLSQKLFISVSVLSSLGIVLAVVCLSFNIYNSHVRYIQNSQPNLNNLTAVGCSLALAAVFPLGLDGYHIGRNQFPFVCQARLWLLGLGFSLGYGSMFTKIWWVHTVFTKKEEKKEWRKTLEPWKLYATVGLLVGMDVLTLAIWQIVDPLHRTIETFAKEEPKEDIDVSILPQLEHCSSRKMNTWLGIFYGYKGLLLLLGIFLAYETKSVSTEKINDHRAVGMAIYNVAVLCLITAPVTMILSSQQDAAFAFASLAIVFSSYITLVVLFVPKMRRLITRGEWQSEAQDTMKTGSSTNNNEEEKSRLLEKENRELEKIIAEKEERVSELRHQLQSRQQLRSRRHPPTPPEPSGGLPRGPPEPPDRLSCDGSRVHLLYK
T1 sequence (O75899 42-941): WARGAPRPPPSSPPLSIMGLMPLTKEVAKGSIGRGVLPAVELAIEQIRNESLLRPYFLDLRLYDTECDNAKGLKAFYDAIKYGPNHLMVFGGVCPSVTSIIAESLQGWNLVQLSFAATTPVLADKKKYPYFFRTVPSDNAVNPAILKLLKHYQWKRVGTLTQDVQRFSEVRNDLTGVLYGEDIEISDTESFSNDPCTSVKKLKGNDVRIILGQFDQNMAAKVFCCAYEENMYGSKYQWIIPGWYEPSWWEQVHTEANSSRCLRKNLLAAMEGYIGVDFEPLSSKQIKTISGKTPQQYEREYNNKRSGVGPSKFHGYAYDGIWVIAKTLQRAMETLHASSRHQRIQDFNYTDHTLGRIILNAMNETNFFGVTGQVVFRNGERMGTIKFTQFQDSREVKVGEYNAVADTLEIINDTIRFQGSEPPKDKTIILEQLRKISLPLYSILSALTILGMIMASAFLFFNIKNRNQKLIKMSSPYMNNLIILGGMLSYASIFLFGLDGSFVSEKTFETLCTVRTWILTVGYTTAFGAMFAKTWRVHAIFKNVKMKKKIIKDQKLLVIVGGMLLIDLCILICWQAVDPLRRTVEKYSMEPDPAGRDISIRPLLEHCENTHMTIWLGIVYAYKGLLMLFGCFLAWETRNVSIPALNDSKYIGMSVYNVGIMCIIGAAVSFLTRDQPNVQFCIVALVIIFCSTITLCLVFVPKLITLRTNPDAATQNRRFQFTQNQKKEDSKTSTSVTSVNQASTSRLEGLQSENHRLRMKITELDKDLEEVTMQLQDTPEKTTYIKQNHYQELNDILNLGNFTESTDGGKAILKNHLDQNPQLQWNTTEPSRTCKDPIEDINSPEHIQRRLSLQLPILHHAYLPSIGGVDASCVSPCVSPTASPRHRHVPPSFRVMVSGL

SMILES | EC50 [µM]
CCCn1c(=O)n(Cc2ccc(Cl)cc2Cl)c(=O)c2c1nc(CC)n2C [Example 60, 1-(2,4-Dichlorobenzyl)-8-ethyl-7-methyl-3-propyl-3,7-dihydro-1H-purine-2,6-dione] | 17.2
CCCn1c(=O)n(Cc2ccc(Br)cc2)c(=O)c2c1nc(CC)n2C [Example 61, 1-(4-Bromobenzyl)-8-ethyl-7-methyl-3-propyl-3,7-dihydro-1H-purine-2,6-dione] | 4.2
CCCn1c(=O)n(Cc2ccc(C(F)(F)F)cc2)c(=O)c2c1nc(CC)n2C [Example 62, 8-Ethyl-7-methyl-3-propyl-1-[4-(trifluoromethyl)benzyl]-3,7-dihydro-1H-purine-2,6-dione] | 5.7
CCCn1c(=O)n(CCc2ccc(Cl)cc2)c(=O)c2c1nc(CC)n2C [Example 63, 1-[2-(4-Chlorophenyl)ethyl]-8-ethyl-7-methyl-3-propyl-3,7-dihydro-1H-purine-2,6-dione] | 13.8
CCCn1c(=O)n(Cc2ccc3nsnc3c2)c(=O)c2c1nc(CC)n2C [Example 64, 1-(2,1,3-Benzothiadiazol-5-ylmethyl)-8-ethyl-7-methyl-3-propyl-3,7-dihydro-1H-purine-2,6-dione] | 11.1
CCCn1c(=O)n(Cc2nc3cc(C(F)(F)F)ccc3s2)c(=O)c2c1nc(CC)n2C [Example 66, 8-Ethyl-7-methyl-3-propyl-1-{[5-(trifluoromethyl)-1,3-benzothiazol-2-yl]methyl}-3,7-dihydro-1H-purine-2,6-dione] | 17.3
CCCn1c(=O)n(Cc2cccc(Cl)c2)c(=O)c2c1nc(CC)n2C [Example 67, 1-(3-Chlorobenzyl)-8-ethyl-7-methyl-3-propyl-3,7-dihydro-1H-purine-2,6-dione] | 15.1
CCCn1c(=O)n(Cc2ccc(C(=O)c3ccccc3)cc2)c(=O)c2c1nc(CC)n2C [Example 68, 1-(4-Benzoylbenzyl)-8-ethyl-7-methyl-3-propyl-3,7-dihydro-1H-purine-2,6-dione] | 15.7
CCCn1c(=O)n(Cc2ccc(OC)cc2)c(=O)c2c1nc(CC)n2C [Example 69, 8-Ethyl-1-(4-methoxybenzyl)-7-methyl-3-propyl-3,7-dihydro-1H-purine-2,6-dione] | 19.7
CCCn1c(=O)n(Cc2ccc(C(C)C)cc2)c(=O)c2c1nc(CC)n2C [Example 70, 8-Ethyl-1-(4-isopropylbenzyl)-7-methyl-3-propyl-3,7-dihydro-1H-purine-2,6-dione] | 6.1
CCc1nc2c(c(=O)n(Cc3ccc(Cl)cc3)c(=O)n2Cc2ccc(OC)cc2OC)n1C [Example 71, 1-(4-Chlorobenzyl)-3-(2,4-dimethoxybenzyl)-8-ethyl-7-methyl-3,7-dihydro-1H-purine-2,6-dione] | 11.3
CCCn1c(=O)n(Cc2ccc(Cl)cc2)c(=O)c2c1nc(CC)n2CC [Example 72, 1-(4-Chlorobenzyl)-7,8-diethyl-3-propyl-3,7-dihydro-H-purine-2,6-dione] | 8.93
CCCn1c(=O)n(Cc2ccc(Cl)cc2)c(=O)c2c1nc(CC)n2-c1ccc(F)cc1 [Example 74, 1-(4-Chlorobenzyl)-8-ethyl-7-(4-fluorophenyl)-3-propyl-3,7-dihydro-1H-purine-2,6-dione] | 9.9
CCc1nc2c(c(=O)n(Cc3ccc(Cl)cc3)c(=O)n2CCC(F)(F)F)n1C [Example 75] | 3.5
CCc1nc2c(c(=O)n(Cc3ccc(Cl)cc3)c(=O)n2CCCC(F)(F)F)n1C [Example 76] | 4.9
CCn1c(=O)n(Cc2ccc(Cl)cc2)c(=O)c2c1nc(OC)n2-c1ccc(F)cc1 [Example 77, 1-(4-chlorobenzyl)-3-ethyl-7-(4-fluorophenyl)-8-methoxy-3,7-dihydro-1H-purine-2,6-dione] | 6.64
CCCn1c(=O)n(Cc2ccc(Cl)cc2)c(=O)c2c1nc(OC)n2C [Example 78, 1-(4-Chlorobenzyl)-8-methoxy-7-methyl-3-propyl-3,7-dihydro-1H-purine-2,6-dione] | 4.5
CCCn1c(=O)n(Cc2ccc(F)cc2)c(=O)c2c1nc(OC)n2C [Example 79, 1-(4-Fluorobenzyl)-8-methoxy-7-methyl-3-propyl-3,7-dihydro-1H-purine-2,6-dione] | 14.5
COc1nc2c(c(=O)n(Cc3ccc(Cl)cc3)c(=O)n2CCC(F)(F)F)n1C [Example 80, 1-(4-chlorobenzyl)-8-methoxy-7-methyl-3-(3,3,3-trifluoropropyl)-3,7-dihydro-1H-purine-2,6-dione] | 5.2

More lines, now with the values ahead:

EC50 [µM] | SMILES
11.5 | COc1nc2c(c(=O)n(Cc3ccc(Cl)cc3)c(=O)n2CCCC(F)(F)F)n1C [Example 81, 1-(4-chlorobenzyl)-8-methoxy-7-methyl-3-(4,4,4-trifluorobutyl)-3,7-dihydro-1H-purine-2,6-dione]
5.6 | CCCn1c(=O)n(Cc2ccc(Cl)cc2)c(=O)c2c1nc(N(C)C)n2C [Example 82, 1-(4-chlorobenzyl)-8-(dimethylamino)-7-methyl-3-propyl-3,7-dihydro-1H-purine-2,6-dione]
7.8 | CCCn1c(=O)n(Cc2ccc(Cl)cc2)c(=O)c2c1nc(N1CCC1)n2C [Example 83, 8-azetidin-1-yl-1-(4-chlorobenzyl)-7-methyl-3-propyl-3,7-dihydro-1H-purine-2,6-dione]
5.1 | CCCn1c(=O)n(Cc2ccc(Cl)cc2)c(=O)c2c1nc(N1CCC(OC)CC1)n2C [Example 84, 1-(4-chlorobenzyl)-8-(4-methoxypiperidin-1-yl)-7-methyl-3-propyl-3,7-dihydro-1H-purine-2,6-dione]
1.9 | CCCn1c(=O)n(Cc2ccc(Cl)cc2)c(=O)c2c1nc(N1CCCCC1)n2C [Example 85, 1-(4-chlorobenzyl)-7-methyl-8-piperidin-1-yl-3-propyl-3,7-dihydro-1H-purine-2,6-dione]
3.6 | CCCn1c(=O)n(Cc2ccc(Cl)cc2)c(=O)c2c1nc(N1CCCC1)n2C [Example 86, 1-(4-chlorobenzyl)-7-methyl-3-propyl-8-pyrrolidin-1-yl-3,7-dihydro-1H-purine-2,6-dione]
15.6 | CCCn1c(=O)n(Cc2ccc(Cl)cc2)c(=O)c2c1nc(N1CCN(C)CC1)n2C [Example 87, 1-(4-chlorobenzyl)-7-methyl-8-(4-methylpiperazin-1-yl)-3-propyl-3,7-dihydro-1H-purine-2,6-dione]
3.7 | CCCn1c(=O)n(Cc2ccc(Cl)cc2)c(=O)c2c1nc(N1CCSCC1)n2C [Example 88, 1-(4-chlorobenzyl)-7-methyl-3-propyl-8-thiomorpholin-4-yl-3,7-dihydro-1H-purine-2,6-dione]
1.8 | CCCn1c(=O)n(Cc2ccc(Cl)cc2)c(=O)c2c1nc(N(CC)CC)n2C [Example 89, 1-(4-chlorobenzyl)-8-(diethylamino)-7-methyl-3-propyl-3,7-dihydro-1H-purine-2,6-dione]
8.3 | CCCn1c(=O)n(Cc2ccc(Cl)cc2)c(=O)c2c1nc(N(C)CCOC)n2C [Example 91, 1-(4-chlorobenzyl)-8-[(2-methoxyethyl)(methyl)amino]-7-methyl-3-propyl-3,7-dihydro-1H-purine-2,6-dione]
7.1 | CCCn1c(=O)n(Cc2ccc(Cl)cc2)c(=O)c2c1nc(N1CCOCC1)n2C [Example 92, 1-(4-chlorobenzyl)-7-methyl-8-morpholin-4-yl-3-propyl-3,7-dihydro-1H-purine-2,6-dione]
